Measurements reported in patent publication US8524778B2, “Biphenyl-4-yl-sulfonic acid arylamides and their use as therapeutic agents” (PIMCO 2664 Limited, priority 2007, dated 2013).
“Also recorded” adds a separate entry of the source. One block for each compound: values may come before it.

Legend:
[1] = In vivo pharmacokinetics: serum levels after oral dosage (HPLC/UV); settings: rat; for oral absorption (blood serum levels after oral administration): oral 10 mg/kg in corn oil, over 60 minutes, FIG. 1; for metabolic stability: oral 10 mg/kg, in vivo pharmacokinetics assay
Procedure: Absorption and metabolic stability were studied using an in vivo pharmacokinetics assay. Drug levels assessed using HPLC/UV.
Following overnight starvation, male Wistar rats (250 g) were given a bolus gavage of 500 μL of a solution of test compound in corn oil (5 mg/mL). Blood samples (1 mL, whole blood) were taken at various time intervals and the serum collected following centrifugation. Samples were frozen until required for analysis.
Ethyl acetate (4 mL) was added to the defrosted serum and the samples mixed for 20 minutes. Following centrifugation, the ethyl acetate layer was collected and evaporated under a stream of nitrogen. The residue was reconstituted in mobile phase and 20 μL injected onto the chromatogram.
Standard calibration curves were prepared for each of the test compounds and were linear in the range of 1 ng/mL to 250 ng/mL.
Mobile phase: 60% 25 mM ammonium acetate, pH 4; 40% acetonitrile.
Serum levels of the following compounds, following oral dosage (10 mg/kg) over the course of 60 minutes, were investigated in vivo in rats using an HPLC/UV detection system, as described above: […]

[2] = test system: mouse collagen-induced arthritis model; test: Collagen-induced arthritis (CIA) model, joint inflammation scoring; assay type: in vivo; settings: 10 mg/kg/day i.p.
Procedure: Collagen-induced arthritis (CIA) was induced in 8-week old male DBA/1 mice, by intradermal injection of 100 μL of chicken collagen type II (2 mg/mL) suspended in complete Freund's adjuvant supplemented with 2 mg/mL devitalised M. Tuberculosis into the base of the tail. This will lead to joint inflammation in >80% of the animals within 4 weeks. Treatment with ABD455 (10 mg/kg/day, delivered in corn oil) was started when joint inflammation became apparent in the first animals (in this experiment 15 days after injection), and the experiment terminated 3 weeks later. For each animal the scores for all four joints were added (maximal score=12).

[3] = test system: TNFα-stimulated phosphorylation of IκB; test: TNFα-stimulated phosphorylation of IκB in mouse macrophages (Western blot); assay type: cell-based; settings: 10 μM and 25 μM, 1 hour pre-treatment, 5 minutes TNFα, FIG. 4
Procedure: (§1) Bone marrow cells were flushed out of the long bones of 3-5 month old mice, and cultured in 10 cm tissue culture dishes for three days in α-MEM supplemented with 10% FCS, antibiotics, and recombinant mouse M-CSF (100 ng/mL). The cells were then harvested by trypsinisation, and re-plated in 6 well-plates (3×10^5 cells per well) and cultured in medium as described above for 2 more days. Cells were then serum starved and pre-treated with test compounds for 1 hour, followed by 5 minutes stimulation with TNFα. After stimulation, the cells were washed in PBS and homogenized in lysis buffer containing PBS, 0.1% (w/v) sodium dodecyl sulphate (SDS), 0.5% (w/v) sodium deoxycholate, and 2% (v/v) protease inhibitor cocktail. The cell lysates were centrifuged as 12,000 g for 10 minutes at 4° C., and the supernatant was collected and protein concentration determined using a Bio-Rad protein assay kit. Aliquots of the cell lysate containing 50 μg protein per lane were run on a 10% denaturing acrylamide gel and blotted onto a nylon membrane. The membranes were washed in Tris buffered saline (TBS) and incubated overnight at 4° C. with the relevant primary antibodies (phospho-IκB and phospho-p42/44 Erk, Cell Signalling Technology, 1:1000 dilution). […]

[4] = test system: TNFα-stimulated phosphorylation of p42/44 Erk; test: TNFα-stimulated phosphorylation of p42/44 Erk in mouse macrophages (Western blot); assay type: cell-based; settings: 10 μM and 25 μM, 1 hour pre-treatment, 5 minutes TNFα, FIG. 5
Procedure: as §1

[5] = test system: macrophage cell line J774; test: Alamar Blue macrophage J774 viability assay; assay type: cell-based; settings: Mus musculus; J774 cells, 72 hours with compound, n=5; Biological Study 1 table
Procedure: The assays are based on the survival of the J774 macrophage cell line; macrophages are closely related to osteoclasts.
J774 cells were plated at 10^4 cells per well in 100 μL αMEM (α Modified Eagle Medium) in 96-well plates and grown overnight. The next day, test compounds were added to the cultures, and cultures were continued for another 72 hours. At the end of the culture period, cell survival was determined using an Alamar Blue assay as previously described (see, e.g., Nociari et al., 1998).
Alamar Blue is an oxidation-reduction sensitive indicator. The dye itself is in the oxidised state, which is blue and non-fluorescent. […] Thus the transformation from oxidised form to reduced form can be measured by fluorimetric or colourimetric means. For fluorescence measurements, 530-560 nm excitation and 590 nm emission wavelengths are typically used. For colourimetric measurements, absorbance is measured at 570 nm (reduced form) and 600 nm (oxidised form) are typically used. A simple calculation is performed to determine the relative quantities of the two species. […]
Briefly, Alamar Blue (Biosource International) was added undiluted to the each well (1:10 v/v, 10 μL). The plate was incubated at 37° C. for 3-4 hours and the fluorescence was measured at 590 nm, with a 25 nm bandwidth. […]

- oral absorption (blood serum levels after oral administration) [1]: not absorbed
SMILES: O=S(=O)(NCCCCO)c1ccc(-c2ccc(F)cc2)cc1 [ABD200, 4′-fluoro-biphenyl-4-sulfonic acid (4-hydroxybutyl)-amide, reference compound]

- oral absorption (blood serum levels after oral administration) [1]: not absorbed
SMILES: Cc1cc(S(=O)(=O)NCCCCO)ccc1-c1ccc(F)cc1F [ABD295, 2′,4′-difluoro-2-methyl-biphenyl-4-sulfonic acid (4-hydroxy-butyl)-amide, reference compound]
- sum of the joint inflammation scores (total joint score) of study group ([2]; after 22 days, n=8, untreated group 29, FIG. 3): 17

- oral absorption (blood serum levels after oral administration) [1]: not absorbed
SMILES: CCc1cc(-c2ccc(F)cc2F)ccc1S(=O)(=O)NCCCCO [ABD385, 2′,4′-difluoro-3-ethyl-biphenyl-4-sulfonic acid (4-hydroxybutyl)-amide, reference compound]

- metabolic stability [1]: good degree of metabolic stability
SMILES: O=S(=O)(Nc1cccc(CO)c1)c1ccc(-c2ccc(Cl)cc2Cl)cc1 [ABD455, 2′,4′-Dichloro-biphenyl-4-sulfonic acid (3-hydroxymethyl-phenyl)-amide]
- effect on collagen-induced arthritis (in words) ([2]; 10 mg/kg/day): fully reverse the effects of collagen-induced arthritis; also recorded: much more effective in reversing the effects of collagen-induced arthritis than ABD295
- sum of the joint inflammation scores (total joint score) of study group ([2]; after 21 days, n=10, untreated group 47, FIG. 2): 3
- effect on TNFα-stimulated phosphorylation of IκB [3]: completely block
- effect on TNFα-stimulated phosphorylation of p42/44 Erk [4]: completely block

- metabolic stability [1]: good degree of metabolic stability
SMILES: O=S(=O)(Nc1cccc(CO)c1)c1ccc(-c2ccc(F)cc2F)cc1 [ABD456, 2′,4′-Difluoro-biphenyl-4-sulfonic acid (3-hydroxymethyl-phenyl)-amide]
- effect on TNFα-stimulated phosphorylation of IκB [3]: completely block
- effect on TNFα-stimulated phosphorylation of p42/44 Erk [4]: completely block

SMILES: O=[N+]([O-])c1ccccc1-c1ccc(S(=O)(=O)Nc2cccc(CO)c2)cc1 [ABD514, 2′-Nitro-biphenyl-4-sulfonic acid (3-hydroxymethyl-phenyl)-amide]
- IC50 [5]: > 4 µM

SMILES: O=S(=O)(Nc1ccc(CO)c(CO)c1)c1ccc(-c2ccc(Cl)cc2Cl)cc1 [ABD550, N-(3,4-Bis(hydroxymethyl)phenyl)-2′,4′-dichlorobiphenyl-4-sulfonamide]
- IC50 [5]: 1.2 ± 0.5 µM
